US10463669B2, “Composition for treating or preventing liver cancer” (Seoul National University R&DB Foundation, priority 2016, dated 2019)

Assays:
[1] = test system: AKT phosphorylation in HCC cell lines (Huh7 and Hep3B); assay: AKT phosphorylation, immunoblot assay; type: cell-based, human; settings: HCC cells
Protocol: Medium was exchanged every day, and the aforementioned cells were cultured for 4 days in 300 μmol/L hydrogen peroxide (H2O2) (Sigma Aldrich; H1009). In several experiments, the cells were treated for 1 hour with 5 mmol/L N-acetylcysteine (NAC) (Sigma Aldrich; A7250), 25 μmol/L idelalisib (LC Laboratoties, Woburn, Mass., USA; I-7447), 25 μmol/L perifosine (LC Laboratoties, Woburn, Mass., USA; P-6522), or 30 μmol/L GSK3β inhibitor (GSK3β inhibitor XI) (Santa Cruz; sc-204770) (31) before adding H2O2. Furthermore, sterilized distilled water (pH 7.0) was used as a negative control (i.e., mock treatment).
Total 2×10^5 cells were boiled for 5 minutes in 2×SDS sample buffer (100 mmol/L TrisHCl [pH 6.8], 4% SDS, 0.2% bromophenol blue, 20% glycerol, and 200 mmol/L β-mercaptoethanol), and then subjected to SDS-PAGE and Western blotting. To detect the TERT, the cells were cultured in 2×SDS sample buffer for 15 minutes at 55° C. TERT-specific (1:300, Rockland Immunochemicals, Gilbertsville, Pa., USA; 600-401-252), AKT-specific (1:1000, Cell Signaling Technology; #9272), phospho-AKT-specific (1:2000, Cell Signaling Technology; #4060), GAPDH-specific (1:2000, Santa Cruz Biotechnology; sc-47724), or β-actin-specific (1:2000, Sigma-Aldrich, St. Louis, Mo., USA; A5441) antibody was diluted in 5% skim milk or bovine serum albumin with TBS-Tween 20, cultured overnight at 4° C., washed, and cultured with HRP-conjugated secondary antibody (1:1000, Abcam; ab131368, or ab131366). By using FUSION-SOLO imager (Vilber Lourmat, Marne La Vallee, France), a chemical fluorescence image was obtained.

[2] = test system: β-catenin and SetD1A binding to the TERT promoter in Huh7 cells; assay: Chromatin immunoprecipitation (ChIP) at the TERT promoter; type: cell-based, human; settings: HCC (Huh7) cells, with or without 300 μmol/L H2O2
Protocol: As it has been described before (Lim S O, et al. Gastroenterology. 2008; 135: 2128-40, 40 el-8.; Hoffmeyer K, et al. Science. 2012; 336: 1549-54.), several modified ChIP (chromatin immunoprecipitation) tests were carried out. In the presence or absence of a PI3K inhibitor, an AKT inhibitor, or a GSK3β inhibitor, Huh7 cells were cultured for 4 days with or without a treatment of 300 μmol/L H2O2. Under mild shaking for 20 minutes at room temperature, the cells were fixed by using 1% paraformaldehyde. After that, the cells were rinsed twice with ice-cold PBS; resuspended with 400 μL of micrococcal nuclease buffer (50 mmol/L TrisHCl [pH 8.0], 5 mmol/L CaC12, 100 μg/mL BSA, 10 mmol/L KCl, and protease inhibitor cocktail [Roche, Basel, Switzerland; 4693159001]); and disrupted with 2 mm-diameter zirconium beads (Watson); to have micrococcal nuclease digestion (New England Biolabs, Beverly, Mass., USA; M0247S). Chromatin (150 μg) was collected and diluted in a dilution buffer (0.1% NP-40, 2 mmol/L EDTA, 150 mmol/L NaCl, 20 mmol/L TrisHCl [pH 8.0], protease inhibitor cocktail [Roche]), and a phosphatase inhibitor cocktail [Calbiochem]), and then subjected to pre-clearing with 2 μg digested salmon sperm DNA, 10 μL preimmune serum (Santa Cruz Biotechnology; sc-2027), and Dynabeads Protein G (Life Technologies; 1004D) for 2 hours at 4° C. After the immunoprecipitation, 20 μL of Dynabeads Protein G were added thereto and the culture was continued for 2 hours. The Dynabeads were washed continuously for 10 minutes with TSE 1 (0.1% SDS, 1% Triton X-100, 2 mmol/L EDTA, 20 mmol/L TrisHCl, and 150 mmol/L NaCl), TSE II (0.1% SDS, 1% Triton X-100, 2 mmol/L EDTA, 20 mmol/L TrisHCl, and 500 mmol/L NaCl), and buffer III (0.25 mol/L LiCl, 1% NP-40, 1% deoxycholate, 1 mmol/L EDTA, and 10 mmol/L TrisHCl). After that, the beads were washed 3 times with TE buffer, and extraction was made by using 1% SDS and 0.1 mol/L NaHCO3. To have reverse formaldehyde cross-linking, the elution solution was heated overnight at 65° C. By using NucleoSpin DNA clean-up kit, DNA debris were purified. By using primers specific to the TERT promoter region, the PCR amplified product was quantified by qPCR (ABI 7300; Applied Biosystems, Foster City, Calif., USA). The PCR amplification was normalized against the TERT intron. The primer sequences are as follows: β-catenin interaction site for ChIP (forward primer: TCCCGGGTCCCCGGCCCA (SEQ ID NO:8); reverse primer: […] (SEQ ID NO:9)) and TERT intron for ChIP (forward primer: […] (SEQ ID NO:10); reverse primer: […] (SEQ ID NO:11)). For each of the β-catenin interaction site which has been recorded before, 20-22 bp were added. The antibodies that are used are as follows: rabbit polyclonal anti-β-catenin (1:200, Abcam, Cambridge, Mass., USA; ab6302), mouse monoclonal anti-RNA polymerase II (1:50, Covance, Princeton, N.J., USA; MMS-126R), and rabbit polyclonal anti-SETD1A (1:100, Novus Biologicals, Littleton, Colo., USA; NBP1-81513).
Inventors of the present invention made an investigation to see whether or not the increased chromatin accessibility in TERT promoter during TERT transcription is related with β-catenin. To do so, by using intrinsic β-catenin and an antibody against histone methyl transferase SetD1A which has been reported to promote the TERT transcription based on chromatin remodeling, chromatin immunoprecipitation was carried out. When a PI3K or AKT inhibitor is treated together for chromatin immunoprecipitation, β-catenin and SetD1A, which bind to the TERT promoter in HCC cells, were reduced even in the presence of H2O2 (FIGS. 3A and 3B). However, when the treatment is carried out also with a GSK3p inhibitor, increased binding of β-catenin and SetD1A was shown regardless of a treatment with H2O2 (FIG. 3C).

CC[C@H](Nc1ncnc2nc[nH]c12)c1nc2cccc(F)c2c(=O)n1-c1ccccc1 [idelalisib, 5-fluoro-3-phenyl-2-[(1S)-1-(7H-purin-6-ylamino)propyl]-4(3H)-quinazolinone]
pAKT [1]: inhibit
SetD1A binding to the TERT promoter [2]: reduced
β-catenin binding to the TERT promoter [2]: reduced
